Measured values reported in patent US20240254089A1, “MODULATORS OF MAS-RELATED G-PROTEIN RECEPTOR X4 AND RELATED PRODUCTS AND METHODS” (ESCIENT PHARMACEUTICALS, INC., priority 2020, published 2024).

Target: T1, human MRGPR X4 (Homo sapiens, UniProt Q96LA9)
T1 construct: expressed in transfected cells
Assay: MRGPR X4 antagonist activity, IP-One Gq HTRF assay in stably transfected HEK cells
Format: cell-based
Details: not given
Description: HEK cells stably transfected to express human MIRGPR X4 were maintained in an incubator at 37° C. with 5% CO2 and grown in DMEM media with 10% fetal bovine serum (FBS) and […] each of sodium pyruvate, Glutamax, penicillin/streptomycin, and Geneticin. HEK cells stably transfected to express mouse MRGPR A1 were maintained in the same incubator and grown in DMEM media with 10% FBS, 1% each of sodium pyruvate, Glutamax, penicillin/streptomycin, Geneticin, and 2.2 mg/mL Hygromycin.
Cells were plated in a 384-well assay plate at 20,000 cells per well in 12 μL of Opti-MEM and kept in an incubator overnight. On the day of the assay, compounds solubilized at 10 mM in DMSO were added as a 10-point curve (10 uM final top concentration with 1:3 serial dilutions) using a Tecan D300E digital dispenser. Agonists were diluted in assay buffer (final concentrations of 5.7 mM Tris-HCl, 43 mM NaCl, 50 mM LiCl, pH=8) and 2 μL of the appropriate agonist are added to each well. Final concentrations of agonists were 10 μM bilirubin, 20 μM deoxycholic acid, or 100 μM conjugated bilirubin (obtained from Lee Biosolutions, catalog #910-12). Final concentrations of DMSO were kept consistent across the plate. Plates were incubated in the dark for 1 h at 37° C. and then for 30 minutes at room temperature. IP-1 standards and HTRF detection reagents were added according to the IP-One—Gq Kit purchased from Cisbio (part number 62IPAPEJ) and incubated in the dark for 1 h at room temperature. The plate was read on a Molecular Devices SpectraMax iD5 plate reader. The HTRF ratio was calculated from the raw data and graphed using GraphPad Prism to calculate an IC50 value for each compound.

T1 sequence (Q96LA9 whole entry): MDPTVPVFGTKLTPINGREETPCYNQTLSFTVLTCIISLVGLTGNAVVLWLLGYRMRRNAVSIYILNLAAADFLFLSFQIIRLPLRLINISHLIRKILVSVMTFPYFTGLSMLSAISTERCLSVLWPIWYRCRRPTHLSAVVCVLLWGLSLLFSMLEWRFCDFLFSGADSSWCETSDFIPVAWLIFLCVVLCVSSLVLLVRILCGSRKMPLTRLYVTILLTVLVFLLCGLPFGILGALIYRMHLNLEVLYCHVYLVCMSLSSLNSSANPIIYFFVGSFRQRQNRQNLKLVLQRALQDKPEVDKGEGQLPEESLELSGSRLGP

| Structure (SMILES) | IC50 [nM] |
| --- | --- |
| Cc1ccc(Cn2nc(C(=O)NCCc3cccnc3)c3c(C#N)cccc32)cc1 [Compound 67] | 100 to 500 |
| COc1cc(Cl)ccc1Cn1nc(C(=O)NCCc2cccnc2)c2ccccc21 [Compound 114] | 1000 to 2500 |
| Cc1ncccc1CCNC(=O)c1cn(Cc2ccc(Cl)cc2)c2ccccc12 [Compound 152, 1-(4-chlorobenzyl)-N-(2-(2-methylpyridin-3-yl)ethyl)-1H-indole-3-carboxamide] | < 100 |
| O=C(NCCc1nnc2ccccn12)c1nn(Cc2ccc(C(F)(F)F)cc2)c2ccccc12 [Compound 14] | < 100 |
| O=C(NCCc1nnc2ccccn12)c1nn(CCOc2ccc(Cl)cc2)c2ccccc12 [Compound 485] | 501 to 1000 |
| Cn1ccc(CCNC(=O)c2nn(Cc3ccc(Cl)cc3)c3ccccc23)n1 [Compound 48] | 100 to 500 |
| COc1ccc2ccccc2c1Cn1nc(C(=O)NCCc2nnc3ccccn23)c2ccccc21 [Compound 453] | 1000 to 2500 |
| O=C(NCCc1nnc2ccccn12)c1nn(Cc2cccc3c2OCO3)c2ccccc12 [Compound 433] | 501 to 1000 |
| CC(C)(CNC(=O)c1cn(Cc2ccc(Cl)cc2)c2ccccc12)c1cccnc1 [Compound 233] | > 2500 |
| O=C(NCCc1ccc(Cl)c(F)c1)c1cn(Cc2cccc(F)c2)c2ccccc12 [Compound 210] | 1000 to 2500 |
| Cc1cccc(CCNC(=O)c2nn(Cc3ccc(Cl)cc3)c3ccccc23)c1 [Compound 362] | 1000 to 2500 |
| Cc1cccc2[nH]c(CCNC(=O)c3nn(Cc4ccc(Cl)cc4)c4ccccc34)nc12 [Compound 561] | < 100 |
| Cc1ccc(Cn2cc(C(=O)NCc3ccccn3)c3ccccc32)cc1 [Compound 229] | > 2500 |
| Cc1ccc(Cn2nc(C(=O)NCCc3cc4ccccc4s3)c3ccccc32)cc1 [Compound 84] | 501 to 1000 |
| O=C(NCCC1CCS(=O)(=O)CC1)c1nn(Cc2ccc(Cl)cc2)c2ccccc12 [Compound 385] | > 2500 |
| O=C(NCCc1ccc(F)cc1)c1cn(Cc2ccc(Cl)cc2)c2ccccc12 [Compound 179] | 100 to 500 |
| Cc1ccc(Cn2nc(C(=O)NCCc3c[nH]c4ccccc34)c3ccccc32)cc1 [Compound 135, N-(2-(1H-indol-3-yl)ethyl)-1-(4-methylbenzyl)-1H-indazole-3-carboxamide] | 1000 to 2500 |
| Cn1ncc2cccc(Cn3nc(C(=O)NCCc4nnc5ccccn45)c4ccccc43)c21 [Compound 460] | 501 to 1000 |
| N#Cc1ccccc1Cn1nc(C(=O)NCCc2cccnc2)c2ccccc21 [Compound 47] | 100 to 500 |
| O=C(NCCc1cccnc1)c1nn(Cc2ccc(Cl)cc2F)c2ccccc12 [Compound 18] | < 100 |
| O=C(NCCn1cncn1)c1nn(Cc2ccc(Cl)cc2)c2ccccc12 [Compound 398] | > 2500 |
| Cc1nc(CCNC(=O)c2nn(Cc3ccc(Cl)cc3)c3ccccc23)sc1C(=O)O [Compound 88] | 501 to 1000 |
| O=C(NCCc1cccnc1)c1nn(Cc2cccc(F)c2)c2ccccc12 [Compound 96] | 1000 to 2500 |
| Cc1ccccc1S(=O)(=O)NC(=O)c1nn(Cc2ccc(Cl)cc2)c2ccccc12 [Compound 287] | 1000 to 2500 |
| Cc1ccncc1CCNC(=O)c1cn(Cc2ccc(Cl)cc2)c2ccccc12 [Compound 161] | 100 to 500 |
| COc1ccc2nc(Cn3nc(C(=O)NCCc4nnc5ccccn45)c4ccccc43)n(C)c2c1 [Compound 567] | 1000 to 2500 |
| Cc1c(C(=O)NCCc2cccnc2)c2ccccc2n1Cc1ccc(Cl)cc1 [Compound 227] | > 2500 |

| Structure (SMILES) | IC50 [nM] |
| --- | --- |
| O=C(NCCc1ccc(F)cc1)c1cn(Cc2cccc(F)c2)c2ccccc12 [Compound 236] | > 2500 |
| O=C(NCCc1nnc2ccccn12)c1nn(Cc2ccc(Cl)cc2)c2ccc(Br)cc12 [Compound 529] | < 100 |
| Cc1ccc(Cn2cc(C(=O)NCCc3ccnn3C)c3ccccc32)cc1 [Compound 187] | 501 to 1000 |
| O=C(NCCc1nnc2n1CCCCC2)c1nn(Cc2cccc(F)c2)c2ccccc12 [Compound 58] | 100 to 500 |
| O=C(NCCc1nnc2ccccn12)c1nn(Cc2ccc3nsnc3c2)c2ccccc12 [Compound 477] | < 100 |
| Cc1ccc(Cn2cc(C(=O)NCc3ccncc3)c3ccccc32)cc1 [Compound 231] | > 2500 |
| Cc1cc(C)c2oc(Cn3nc(C(=O)NCCc4nnc5ccccn45)c4ccccc43)cc2c1 [Compound 557] | 100 to 500 |
| Cc1ccc(Cn2nc(C(=O)NCCc3cnoc3)c3ccccc32)cc1 [Compound 128] | > 2500 |
| CC(C)(C#N)c1ccc(Cn2nc(C(=O)NCCc3nnc4ccccn34)c3ccccc32)cc1 [Compound 462] | 1000 to 2500 |
| O=C(NCCc1cccnc1)c1nn(Cc2ccccc2Cl)c2ccccc12 [Compound 89] | 501 to 1000 |
| O=C(NCCOc1cccnc1)c1nn(Cc2ccc(Cl)cc2)c2ccccc12 [Compound 336] | 100 to 500 |
| O=C(NCCc1nnc2ccccn12)c1nn(Cc2ccc(Cl)cc2)c2ccc(I)cc12 [Compound 552] | < 100 |
| O=C(NCCc1nnc2ccccn12)c1nn(Cc2ccc(Cl)cc2Cl)c2ccccc12 [Compound 525] | < 100 |
| Cc1c(Cn2nc(C(=O)NCCc3nnc4ccccn34)c3ccccc32)oc2ccccc12 [Compound 573] | < 100 |
| Cc1ccccc1CCNC(=O)c1cn(Cc2ccc(Cl)cc2)c2ccccc12 [Compound 178] | 100 to 500 |
| Cn1cc(CNC(=O)c2nn(Cc3ccc(Cl)cc3)c3ccccc23)cn1 [Compound 353] | > 2500 |
| O=C(NCCCn1cnc2ccccc21)c1nn(Cc2ccc(Cl)cc2)c2ccccc12 [Compound 425] | 1000 to 2500 |
| Cc1ccc(Cn2nc(C(=O)NCCc3cn(C)c4ccccc34)c3ccccc32)cc1 [Compound 94] | 1000 to 2500 |
| Cc1ccc(Cn2nc(C(=O)NCCc3nnc4n3CCC4)c3ccccc32)cc1 [Compound 59] | 100 to 500 |
| O=C(O)c1nn(Cc2ccc(Cl)cc2)c2ccc(F)cc12 [Compound 322] | 1000 to 2500 |
| O=C(NCCc1nnc2ccccn12)c1nn(Cc2nc3ccccc3[nH]c2=O)c2ccccc12 [Compound 516] | > 2500 |
| O=C(O)c1nn(Cc2ccc(C(F)(F)F)cc2Cl)c2ccccc12 [Compound 317] | 501 to 1000 |
| CC(C)c1noc(Cn2nc(C(=O)NCCc3nnc4ccccn34)c3ccccc32)n1 [Compound 437] | 100 to 500 |
| O=C(NCCc1nnc2ccccn12)c1nn(Cc2ccc3c(c2)CCC3)c2ccccc12 [Compound 494] | < 100 |
| O=C(NCCc1cccnc1)c1nn(Cc2ccc(Cl)c(Cl)c2)c2ccccc12 [Compound 22] | < 100 |
| O=C(NCCc1nnc2n1CCCCC2)c1nn(Cc2ccc(Cl)cc2)c2ccccc12 [Compound 6] | < 100 |
| COc1ccc(CCNC(=O)c2nn(Cc3ccc(Cl)cc3)c3ccccc23)cc1OC [Compound 343] | 501 to 1000 |

Same assay, conditions: versus 20 μM deoxycholic acid agonist; HEK cells expressing human MRGPR X4; read-out: MRGPRX4 Antagonist Activity

| Structure (SMILES) | IC50 [nM] |
| --- | --- |
| O=C(O)c1ccc(S(=O)(=O)NC(=O)c2nn(Cc3ccc(OC(F)F)cc3)c3ccccc23)cc1 [Compound 311, 4-(N-(1-(4-(difluoromethoxy)benzyl)-1H-indazole-3-carbonyl)sulfamoyl)benzoic acid] | 1000 to 2500 |
| O=C(NS(=O)(=O)c1ccccc1F)c1nn(Cc2ccc(OC(F)F)cc2)c2ccccc12 [Compound 269] | 1000 to 2500 |
| O=C(NCC1(c2cccnc2)CC1)c1cn(Cc2ccc(Cl)cc2)c2ccccc12 [Compound 230] | > 2500 |
| O=C(NS(=O)(=O)c1ccccc1C(F)(F)F)c1nn(Cc2ccc(OC(F)F)cc2)c2ccccc12 [Compound 262] | 501 to 1000 |
